# Results as given in US10765114B2, “4-amino-6-(pyridyl and 2-substitutedphenyl)-picolinates and 6-amino-2-(pyridyl and 2-substitutedphenyl)-pyrimidine-4-carboxylates and their use as herbicides” (Dow AgroSciences LLC, priority 2013, dated 2020).
# Tested on: Key Broadleaf Weed and Crop Species
# Assay: Post-Emergent Test II (Table 5)
# Type: in vivo
# Details: Abutilon theophrasti, post-emergence, 336 h, ABUTH: velvetleaf (Abutilon theophrasti), application rate 70 (kg ai/ha; footnote: g ai/ha), read-out: Visual Growth Reduction (%) 14 Days After Application ABUTH
# Summary of the method: (§1)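 Plants grown in a greenhouse (~15 h photoperiod, 23-29° C day) to first or second true leaf stage were sprayed post-emergence at 187 L/ha with compound in acetone/DMSO-based aqueous spray containing crop oil concentrate and surfactant, applied at a high rate plus ½× to 1/16× serial rates. Injury was scored visually 14 days later, 0-100% versus untreated plants.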
row,Structure (SMILES),pest or weed control at 70 g/ha [%]
1,"COC(=O)c1nc(-c2ccc(C(F)(F)F)c(F)c2C)cc(N)c1Cl [Compound 9, methyl 4-amino-3-chloro-6-(3-fluoro-2-methyl-4-(trifluoromethyl)phenyl)picolinate]",85 to 94

# Same assay, conditions: Abutilon theophrasti, post-emergence, 336 h, ABUTH: velvetleaf (Abutilon theophrasti), application rate 140 (kg ai/ha; footnote: g ai/ha), read-out: Visual Growth Reduction (%) 14 Days After Application ABUTH
row,Structure (SMILES),pest or weed control at 140 g/ha [%]
1,"COC(=O)c1nc(-c2ccc(C(F)(F)F)c(F)c2C)cc(N)c1Cl [Compound 9, methyl 4-amino-3-chloro-6-(3-fluoro-2-methyl-4-(trifluoromethyl)phenyl)picolinate]",85 to 94

# Same assay, conditions: Amaranthus retroflexus, post-emergence, 336 h, AMARE: redroot pigweed (Amaranthus retroflexus), application rate 70 (kg ai/ha; footnote: g ai/ha), read-out: Visual Growth Reduction (%) 14 Days After Application AMARE
row,Structure (SMILES),pest or weed control at 70 g/ha [%]
1,"COC(=O)c1nc(-c2ccc(C(F)(F)F)c(F)c2C)cc(N)c1Cl [Compound 9, methyl 4-amino-3-chloro-6-(3-fluoro-2-methyl-4-(trifluoromethyl)phenyl)picolinate]",0 to 29

# Same assay, conditions: Amaranthus retroflexus, post-emergence, 336 h, AMARE: redroot pigweed (Amaranthus retroflexus), application rate 140 (kg ai/ha; footnote: g ai/ha), read-out: Visual Growth Reduction (%) 14 Days After Application AMARE
row,Structure (SMILES),pest or weed control at 140 g/ha [%]
1,"COC(=O)c1nc(-c2ccc(C(F)(F)F)c(F)c2C)cc(N)c1Cl [Compound 9, methyl 4-amino-3-chloro-6-(3-fluoro-2-methyl-4-(trifluoromethyl)phenyl)picolinate]",0 to 29

# Same assay, conditions: Brassica napus, post-emergence, 336 h, BRSSS: oilseed rape, canola (Brassica napus), application rate 70 (kg ai/ha; footnote: g ai/ha), read-out: Visual Growth Reduction (%) 14 Days After Application BRSSS
row,Structure (SMILES),pest or weed control at 70 g/ha [%]
1,"COC(=O)c1nc(-c2ccc(C(F)(F)F)c(F)c2C)cc(N)c1Cl [Compound 9, methyl 4-amino-3-chloro-6-(3-fluoro-2-methyl-4-(trifluoromethyl)phenyl)picolinate]",0 to 29

# Same assay, conditions: Brassica napus, post-emergence, 336 h, BRSSS: oilseed rape, canola (Brassica napus), application rate 140 (kg ai/ha; footnote: g ai/ha), read-out: Visual Growth Reduction (%) 14 Days After Application BRSSS
row,Structure (SMILES),pest or weed control at 140 g/ha [%]
1,"COC(=O)c1nc(-c2ccc(C(F)(F)F)c(F)c2C)cc(N)c1Cl [Compound 9, methyl 4-amino-3-chloro-6-(3-fluoro-2-methyl-4-(trifluoromethyl)phenyl)picolinate]",0 to 29

# Same assay, conditions: Chenopodium album, post-emergence, 336 h, CHEAL: lambsquarters (Chenopodium album), application rate 70 (kg ai/ha; footnote: g ai/ha), read-out: Visual Growth Reduction (%) 14 Days After Application CHEAL
row,Structure (SMILES),pest or weed control at 70 g/ha [%]
1,"COC(=O)c1nc(-c2ccc(C(F)(F)F)c(F)c2C)cc(N)c1Cl [Compound 9, methyl 4-amino-3-chloro-6-(3-fluoro-2-methyl-4-(trifluoromethyl)phenyl)picolinate]",85 to 94

# Same assay, conditions: Chenopodium album, post-emergence, 336 h, CHEAL: lambsquarters (Chenopodium album), application rate 140 (kg ai/ha; footnote: g ai/ha), read-out: Visual Growth Reduction (%) 14 Days After Application CHEAL
row,Structure (SMILES),pest or weed control at 140 g/ha [%]
1,"COC(=O)c1nc(-c2ccc(C(F)(F)F)c(F)c2C)cc(N)c1Cl [Compound 9, methyl 4-amino-3-chloro-6-(3-fluoro-2-methyl-4-(trifluoromethyl)phenyl)picolinate]",95 to 100

# Same assay, conditions: Euphorbia heterophylla, post-emergence, 336 h, EPHHL: wild poinsettia (Euphorbia heterophylla), application rate 70 (kg ai/ha; footnote: g ai/ha), read-out: Visual Growth Reduction (%) 14 Days After Application EPHHL
row,Structure (SMILES),pest or weed control at 70 g/ha [%]
1,"COC(=O)c1nc(-c2ccc(C(F)(F)F)c(F)c2C)cc(N)c1Cl [Compound 9, methyl 4-amino-3-chloro-6-(3-fluoro-2-methyl-4-(trifluoromethyl)phenyl)picolinate]",95 to 100

# Same assay, conditions: Helianthus annuus, post-emergence, 336 h, HELAN: sunflower (Helianthus annuus), application rate 70 (kg ai/ha; footnote: g ai/ha), read-out: Visual Growth Reduction (%) 14 Days After Application HELAN
row,Structure (SMILES),pest or weed control at 70 g/ha [%]
1,"COC(=O)c1nc(-c2ccc(C(F)(F)F)c(F)c2C)cc(N)c1Cl [Compound 9, methyl 4-amino-3-chloro-6-(3-fluoro-2-methyl-4-(trifluoromethyl)phenyl)picolinate]",0 to 29

# Same assay, conditions: Helianthus annuus, post-emergence, 336 h, HELAN: sunflower (Helianthus annuus), application rate 140 (kg ai/ha; footnote: g ai/ha), read-out: Visual Growth Reduction (%) 14 Days After Application HELAN
row,Structure (SMILES),pest or weed control at 140 g/ha [%]
1,"COC(=O)c1nc(-c2ccc(C(F)(F)F)c(F)c2C)cc(N)c1Cl [Compound 9, methyl 4-amino-3-chloro-6-(3-fluoro-2-methyl-4-(trifluoromethyl)phenyl)picolinate]",85 to 94

# Same assay, conditions: Viola tricolor, post-emergence, 336 h, VIOTR: wild pansy (Viola tricolor), application rate 70 (kg ai/ha; footnote: g ai/ha), read-out: Visual Growth Reduction (%) 14 Days After Application VIOTR
row,Structure (SMILES),pest or weed control at 70 g/ha [%]
1,"COC(=O)c1nc(-c2ccc(C(F)(F)F)c(F)c2C)cc(N)c1Cl [Compound 9, methyl 4-amino-3-chloro-6-(3-fluoro-2-methyl-4-(trifluoromethyl)phenyl)picolinate]",0 to 29

# Same assay, conditions: Viola tricolor, post-emergence, 336 h, VIOTR: wild pansy (Viola tricolor), application rate 140 (kg ai/ha; footnote: g ai/ha), read-out: Visual Growth Reduction (%) 14 Days After Application VIOTR
row,Structure (SMILES),pest or weed control at 140 g/ha [%]
1,"COC(=O)c1nc(-c2ccc(C(F)(F)F)c(F)c2C)cc(N)c1Cl [Compound 9, methyl 4-amino-3-chloro-6-(3-fluoro-2-methyl-4-(trifluoromethyl)phenyl)picolinate]",0 to 29

# Tested on: Key Grass and Sedge Weeds as well as Grass Crops
# Assay: Post-Emergent Test II (Table 6)
# Type: in vivo
# Details: post-emergence, 336 h, CYPSS, 70 g ai/ha, 14 days after application, read-out: Visual Growth Reduction (%) 14 Days After Application CYPSS
# Summary of the method: as §1
row,Structure (SMILES),pest or weed control at 70 g/ha [%]
1,"COC(=O)c1nc(-c2ccc(C(F)(F)F)c(F)c2C)cc(N)c1Cl [Compound 9, methyl 4-amino-3-chloro-6-(3-fluoro-2-methyl-4-(trifluoromethyl)phenyl)picolinate]",95 to 100

# Same assay, conditions: post-emergence, 336 h, CYPSS, 140 g ai/ha, 14 days after application, read-out: Visual Growth Reduction (%) 14 Days After Application CYPSS
row,Structure (SMILES),pest or weed control at 140 g/ha [%]
1,"COC(=O)c1nc(-c2ccc(C(F)(F)F)c(F)c2C)cc(N)c1Cl [Compound 9, methyl 4-amino-3-chloro-6-(3-fluoro-2-methyl-4-(trifluoromethyl)phenyl)picolinate]",95 to 100

# Same assay, conditions: post-emergence, 336 h, DIGSA: crabgrass (Digitaria sanguinalis), 70 g ai/ha, 14 days after application, read-out: Visual Growth Reduction (%) 14 Days After Application DIGSA
row,Structure (SMILES),pest or weed control at 70 g/ha [%]
1,"COC(=O)c1nc(-c2ccc(C(F)(F)F)c(F)c2C)cc(N)c1Cl [Compound 9, methyl 4-amino-3-chloro-6-(3-fluoro-2-methyl-4-(trifluoromethyl)phenyl)picolinate]",0 to 29

# Same assay, conditions: post-emergence, 336 h, DIGSA: crabgrass (Digitaria sanguinalis), 140 g ai/ha, 14 days after application, read-out: Visual Growth Reduction (%) 14 Days After Application DIGSA
row,Structure (SMILES),pest or weed control at 140 g/ha [%]
1,"COC(=O)c1nc(-c2ccc(C(F)(F)F)c(F)c2C)cc(N)c1Cl [Compound 9, methyl 4-amino-3-chloro-6-(3-fluoro-2-methyl-4-(trifluoromethyl)phenyl)picolinate]",0 to 29

# Same assay, conditions: post-emergence, 336 h, ECHSS, 70 g ai/ha, 14 days after application, read-out: Visual Growth Reduction (%) 14 Days After Application ECHSS
row,Structure (SMILES),pest or weed control at 70 g/ha [%]
1,"COC(=O)c1nc(-c2ccc(C(F)(F)F)c(F)c2C)cc(N)c1Cl [Compound 9, methyl 4-amino-3-chloro-6-(3-fluoro-2-methyl-4-(trifluoromethyl)phenyl)picolinate]",0 to 29

# Same assay, conditions: post-emergence, 336 h, ECHSS, 140 g ai/ha, 14 days after application, read-out: Visual Growth Reduction (%) 14 Days After Application ECHSS
row,Structure (SMILES),pest or weed control at 140 g/ha [%]
1,"COC(=O)c1nc(-c2ccc(C(F)(F)F)c(F)c2C)cc(N)c1Cl [Compound 9, methyl 4-amino-3-chloro-6-(3-fluoro-2-methyl-4-(trifluoromethyl)phenyl)picolinate]",0 to 29

# Same assay, conditions: post-emergence, 336 h, ORYSS (crop), 70 g ai/ha, 14 days after application, read-out: Visual Growth Reduction (%) 14 Days After Application ORYSS
row,Structure (SMILES),pest or weed control at 70 g/ha [%]
1,"COC(=O)c1nc(-c2ccc(C(F)(F)F)c(F)c2C)cc(N)c1Cl [Compound 9, methyl 4-amino-3-chloro-6-(3-fluoro-2-methyl-4-(trifluoromethyl)phenyl)picolinate]",0 to 29

# Same assay, conditions: post-emergence, 336 h, ORYSS (crop), 140 g ai/ha, 14 days after application, read-out: Visual Growth Reduction (%) 14 Days After Application ORYSS
row,Structure (SMILES),pest or weed control at 140 g/ha [%]
1,"COC(=O)c1nc(-c2ccc(C(F)(F)F)c(F)c2C)cc(N)c1Cl [Compound 9, methyl 4-amino-3-chloro-6-(3-fluoro-2-methyl-4-(trifluoromethyl)phenyl)picolinate]",0 to 29

# Same assay, conditions: post-emergence, 336 h, SORVU: grain sorghum (Sorghum vulgare), 70 g ai/ha, 14 days after application, read-out: Visual Growth Reduction (%) 14 Days After Application SORVU
row,Structure (SMILES),pest or weed control at 70 g/ha [%]
1,"COC(=O)c1nc(-c2ccc(C(F)(F)F)c(F)c2C)cc(N)c1Cl [Compound 9, methyl 4-amino-3-chloro-6-(3-fluoro-2-methyl-4-(trifluoromethyl)phenyl)picolinate]",0 to 29

# Same assay, conditions: post-emergence, 336 h, SORVU: grain sorghum (Sorghum vulgare), 140 g ai/ha, 14 days after application, read-out: Visual Growth Reduction (%) 14 Days After Application SORVU
row,Structure (SMILES),pest or weed control at 140 g/ha [%]
1,"COC(=O)c1nc(-c2ccc(C(F)(F)F)c(F)c2C)cc(N)c1Cl [Compound 9, methyl 4-amino-3-chloro-6-(3-fluoro-2-methyl-4-(trifluoromethyl)phenyl)picolinate]",30 to 44

# Same assay, conditions: post-emergence, 336 h, TRZSS (crop), 70 g ai/ha, 14 days after application, read-out: Visual Growth Reduction (%) 14 Days After Application TRZSS
row,Structure (SMILES),pest or weed control at 70 g/ha [%]
1,"COC(=O)c1nc(-c2ccc(C(F)(F)F)c(F)c2C)cc(N)c1Cl [Compound 9, methyl 4-amino-3-chloro-6-(3-fluoro-2-methyl-4-(trifluoromethyl)phenyl)picolinate]",0 to 29

# Same assay, conditions: post-emergence, 336 h, TRZSS (crop), 140 g ai/ha, 14 days after application, read-out: Visual Growth Reduction (%) 14 Days After Application TRZSS
row,Structure (SMILES),pest or weed control at 140 g/ha [%]
1,"COC(=O)c1nc(-c2ccc(C(F)(F)F)c(F)c2C)cc(N)c1Cl [Compound 9, methyl 4-amino-3-chloro-6-(3-fluoro-2-methyl-4-(trifluoromethyl)phenyl)picolinate]",0 to 29

# Same assay, conditions: post-emergence, 336 h, ZEAMX: maize, corn (Zea mays), 70 g ai/ha, 14 days after application, read-out: Visual Growth Reduction (%) 14 Days After Application ZEAMX
row,Structure (SMILES),pest or weed control at 70 g/ha [%]
1,"COC(=O)c1nc(-c2ccc(C(F)(F)F)c(F)c2C)cc(N)c1Cl [Compound 9, methyl 4-amino-3-chloro-6-(3-fluoro-2-methyl-4-(trifluoromethyl)phenyl)picolinate]",0 to 29

# Same assay, conditions: post-emergence, 336 h, ZEAMX: maize, corn (Zea mays), 140 g ai/ha, 14 days after application, read-out: Visual Growth Reduction (%) 14 Days After Application ZEAMX
row,Structure (SMILES),pest or weed control at 140 g/ha [%]
1,"COC(=O)c1nc(-c2ccc(C(F)(F)F)c(F)c2C)cc(N)c1Cl [Compound 9, methyl 4-amino-3-chloro-6-(3-fluoro-2-methyl-4-(trifluoromethyl)phenyl)picolinate]",30 to 44
